Laboratory results from patent US12570666B2, “Furoindazole derivatives” (Bayer Aktiengesellschaft, priority 2019, dated 2026).

Target: T1, human GPR84 receptor (Homo sapiens, UniProt Q9NQS5)
T1 construct: frozen aliquots prepared by acCELLerate; host or cells: CHO-K1
Test: cAMP HTRF assay for identification of cellular GPR84 antagonists
Format: cell-based
Details: CHO-K1 cells stably expressing human GPR84; Forskolin + agonist 6-OAU (EC80); average or median values
Procedure, shortened: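 IC50 came from 4-parameter fits over 20 μM–0.07 nM (11 points, duplicate), normalized between DMSO (0%) and agonist-free (100% inhibition) wells. Readout: cAMP-d2/Eu-cryptate HTRF in hGPR84 CHO-K1 cells given forskolin plus agonist, compound preincubated 30 min at room temperature.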

T1 sequence (Q9NQS5 whole entry): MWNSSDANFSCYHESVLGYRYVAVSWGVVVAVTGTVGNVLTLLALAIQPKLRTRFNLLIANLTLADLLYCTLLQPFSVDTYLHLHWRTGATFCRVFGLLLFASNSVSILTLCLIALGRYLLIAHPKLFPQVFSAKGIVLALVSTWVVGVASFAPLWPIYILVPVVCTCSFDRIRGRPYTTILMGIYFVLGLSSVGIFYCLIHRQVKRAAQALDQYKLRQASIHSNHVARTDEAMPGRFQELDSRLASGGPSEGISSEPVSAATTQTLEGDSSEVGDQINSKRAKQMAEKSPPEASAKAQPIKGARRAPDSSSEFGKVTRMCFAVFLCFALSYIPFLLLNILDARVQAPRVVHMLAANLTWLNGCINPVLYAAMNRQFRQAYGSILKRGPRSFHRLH

IC50 [nM]	Compound
51	O=C(NC[C@@H]1COCCO1)c1oc2c(c1C1CC1)-c1nn(Cc3ccccn3)cc1CC2 [Example 120, 8-cyclopropyl-N-[(2R)-1,4-dioxan-2-ylmethyl]-2-(pyridin-2-ylmethyl)-4,5-dihydro-2H-furo[2,3-g]indazole-7-carboxamide]
67	Cn1ccc(CNC(=O)c2oc3c(c2C2CC2)-c2nn(Cc4ccccn4)cc2CC3)n1 [Example 121, 8-cyclopropyl-N-[(1-methyl-1H-pyrazol-3-yl)methyl]-2-(pyridin-2-ylmethyl)-4,5-dihydro-2H-furo[2,3-g]indazole-7-carboxamide]
61	O=C(NCc1ncco1)c1oc2c(c1C1CC1)-c1nn(Cc3ccccn3)cc1CC2 [Example 122, 8-cyclopropyl-N-(1,3-oxazol-2-ylmethyl)-2-(pyridin-2-ylmethyl)-4,5-dihydro-2H-furo[2,3-g]indazole-7-carboxamide]
120	Cc1c(C(=O)NCc2ccn(C)n2)oc2c1-c1nn(Cc3ccccn3)cc1C1(CC1)C2 [Example 123, 8′-methyl-N-[(1-methyl-1H-pyrazol-3-yl)methyl]-2′-(pyridin-2-ylmethyl)-2′,5′-dihydrospiro[cyclopropane-1,4′-furo[2,3-g]indazole]-7′-carboxamide]
180	Cc1c(C(=O)NCc2ncco2)oc2c1-c1nn(Cc3ccccn3)cc1C1(CC1)C2 [Example 124, 8′-methyl-N-(1,3-oxazol-2-ylmethyl)-2′-(pyridin-2-ylmethyl)-2′,5′-dihydrospiro[cyclopropane-1,4′-furo[2,3-g]indazole]-7′-carboxamide]
51	Cc1c(C(=O)NC[C@@H]2CCCO2)oc2c1-c1nn(C[C@H]3COCCO3)cc1C1(CC1)C2 [Example 125, 2′-[(2S)-1,4-dioxan-2-ylmethyl]-8′-methyl-N-[(2S)-tetrahydrofuran-2-ylmethyl]-2′,5′-dihydrospiro[cyclopropane-1,4′-furo[2,3-g]indazole]-7′-carboxamide]
39	Cc1c(C(=O)NC[C@@H]2COCCO2)oc2c1-c1nn(C[C@H]3COCCO3)cc1C1(CC1)C2 [Example 126]
170	Cc1c(C(=O)NCc2ccn(C)n2)oc2c1-c1nn(C[C@H]3COCCO3)cc1C1(CC1)C2 [Example 127, 2′-[(2S)-1,4-dioxan-2-ylmethyl]-8′-methyl-N-[(1-methyl-1H-pyrazol-3-yl)methyl]-2′,5′-dihydrospiro[cyclopropane-1,4′-furo[2,3-g]indazole]-7′-carboxamide]
110	Cc1c(C(=O)NCc2ncco2)oc2c1-c1nn(C[C@H]3COCCO3)cc1C1(CC1)C2 [Example 128, 2′-[(2S)-1,4-dioxan-2-ylmethyl]-8′-methyl-N-(1,3-oxazol-2-ylmethyl)-2′,5′-dihydrospiro[cyclopropane-1,4′-furo[2,3-g]indazole]-7′-carboxamide]
55	Cc1c(C(=O)NC[C@@H]2CCCO2)oc2c1-c1nn(CC3CC3)cc1C1(CC1)C2 [Example 129, 2′-(cyclopropylmethyl)-8′-methyl-N-[(2S)-tetrahydrofuran-2-ylmethyl]-2′,5′-dihydrospiro[cyclopropane-1,4′-furo[2,3-g]indazole]-7′-carboxamide]
1290	Cc1c(C(=O)NC[C@H]2COCCO2)oc2c1-c1nn(CC3CC3)cc1C1(CC1)C2 [Example 130, 2′-(cyclopropylmethyl)-N-[(2S)-1,4-dioxan-2-ylmethyl]-8′-methyl-2′,5′-dihydrospiro[cyclopropane-1,4′-furo[2,3-g]indazole]-7′-carboxamide]
35	Cc1c(C(=O)NC[C@@H]2COCCO2)oc2c1-c1nn(CC3CC3)cc1C1(CC1)C2 [Example 131, 2′-(cyclopropylmethyl)-N-[(2R)-1,4-dioxan-2-ylmethyl]-8′-methyl-2′,5′-dihydrospiro[cyclopropane-1,4′-furo[2,3-g]indazole]-7′-carboxamide]
940	Cc1c(C(=O)NC[C@H]2COCCO2)oc2c1-c1nn(Cc3ccccn3)cc1C1(CCC1)C2 [Example 133]
43	Cc1c(C(=O)NC[C@@H]2COCCO2)oc2c1-c1nn(Cc3ccccn3)cc1C1(CCC1)C2 [Example 134]
26	[2H]C([2H])(c1ccccc1)n1cc2c(n1)-c1c(oc(C(=O)NC[C@@H]3CCCO3)c1C)CC2 [Example 135, 8-methyl-2-[phenyl(^2H2)methyl]-N-[(2S)-tetrahydrofuran-2-ylmethyl]-4,5-dihydro-2H-furo[2,3-g]indazole-7-carboxamide]
25	[2H]C([2H])(c1ccccc1)n1cc2c(n1)-c1c(oc(C(=O)NC[C@@H]3COCCO3)c1C)CC2 [Example 136, N-[(2R)-1,4-dioxan-2-ylmethyl]-8-methyl-2-[phenyl(^2H2)methyl]-4,5-dihydro-2H-furo[2,3-g]indazole-7-carboxamide]
45	Cc1c(C(=O)NC[C@@H]2CCCO2)oc2c1-c1nn(Cc3noc(C4CC4)n3)cc1CC2 [Example 137, 2-[(5-cyclopropyl-1,2,4-oxadiazol-3-yl)methyl]-8-methyl-N-[(2S)-tetrahydrofuran-2-ylmethyl]-4,5-dihydro-2H-furo[2,3-g]indazole-7-carboxamide]

IC50 [nM]	Compound
43	Cc1c(C(=O)NC[C@@H]2COCCO2)oc2c1-c1nn(Cc3noc(C4CC4)n3)cc1CC2 [Example 138]
80	Cc1c(C(=O)NC[C@@H]2CCCO2)oc2c1-c1nn(CCNC(=O)OC(C)(C)C)cc1CC2 [Example 139, tert-butyl [2-(8-methyl-7-{[(2S)-tetrahydrofuran-2-ylmethyl]carbamoyl}-4,5-dihydro-2H-furo[2,3-g]indazol-2-yl)ethyl]carbamate]
83	Cc1c(C(=O)NC[C@@H]2COCCO2)oc2c1-c1nn(CCNC(=O)OC(C)(C)C)cc1CC2 [Example 140, tert-butyl [2-(7-{[(2R)-1,4-dioxan-2-ylmethyl]carbamoyl}-8-methyl-4,5-dihydro-2H-furo[2,3-g]indazol-2-yl)ethyl]carbamate]
700	Cc1c(C(=O)NC[C@@H]2CCCO2)oc2c1-c1nn(CCN3CCN(C(=O)OC(C)(C)C)CC3)cc1CC2 [Example 141, tert-butyl 4-[2-(8-methyl-7-{[(2S)-tetrahydrofuran-2-ylmethyl]carbamoyl}-4,5-dihydro-2H-furo[2,3-g]indazol-2-yl)ethyl]piperazine-1-carboxylate]
670	Cc1c(C(=O)NC[C@@H]2COCCO2)oc2c1-c1nn(CCN3CCN(C(=O)OC(C)(C)C)CC3)cc1CC2 [Example 142, tert-butyl 4-[2-(7-{[(2R)-1,4-dioxan-2-ylmethyl]carbamoyl}-8-methyl-4,5-dihydro-2H-furo[2,3-g]indazol-2-yl)ethyl]piperazine-1-carboxylate]
77	Cc1c(C(=O)NC[C@@H]2CCCO2)oc2c1-c1nn(C[C@H]3COCCO3)cc1C1(CCC1)C2 [Example 143, 2′-[(2S)-1,4-dioxan-2-ylmethyl]-8′-methyl-N-[(2S)-tetrahydrofuran-2-ylmethyl]-2′,5′-dihydrospiro[cyclobutane-1,4′-furo[2,3-g]indazole]-7′-carboxamide]
7390	Cc1c(C(=O)NC[C@H]2COCCO2)oc2c1-c1nn(C[C@H]3COCCO3)cc1C1(CCC1)C2 [Example 144, N,2′-bis[(2S)-1,4-dioxan-2-ylmethyl]-8′-methyl-2′,5′-dihydrospiro[cyclobutane-1,4′-furo[2,3-g]indazole]-7′-carboxamide]
110	Cc1c(C(=O)NC[C@@H]2COCCO2)oc2c1-c1nn(C[C@H]3COCCO3)cc1C1(CCC1)C2 [Example 145]
47	Cc1c(C(=O)NC[C@@H]2CCCO2)oc2c1-c1nn(Cc3ccc(C(=O)NC[C@@H]4CCCO4)nc3)cc1CC2 [Example 146, 8-methyl-N-[(2S)-tetrahydrofuran-2-ylmethyl]-2-[(6-{[(2S)-tetrahydrofuran-2-ylmethyl]carbamoyl}pyridin-3-yl)methyl]-4,5-dihydro-2H-furo[2,3-g]indazole-7-carboxamide]
130	Cc1c(C(=O)NC[C@@H]2COCCO2)oc2c1-c1nn(Cc3ccc(C(=O)NC[C@@H]4COCCO4)nc3)cc1CC2 [Example 147, N-[(2R)-1,4-dioxan-2-ylmethyl]-2-[(6-{[(2R)-1,4-dioxan-2-ylmethyl]carbamoyl}pyridin-3-yl)methyl]-8-methyl-4,5-dihydro-2H-furo[2,3-g]indazole-7-carboxamide]
35	Cc1c(C(=O)NC[C@@H]2CCCO2)oc2c1-c1nn(Cc3ccccn3)cc1C(C)(C)C2 [Example 148, 4,4,8-trimethyl-2-(pyridin-2-ylmethyl)-N-[(2S)-tetrahydrofuran-2-ylmethyl]-4,5-dihydro-2H-furo[2,3-g]indazole-7-carboxamide]
10	Cc1c(C(=O)NC[C@@H]2CCCO2)oc2c1-c1nn(Cc3ccccn3)cc1C1(CC1)C2 [Example 149]
11	Cc1c(C(=O)NC[C@@H]2COCCO2)oc2c1-c1nn(Cc3ccccn3)cc1C1(CC1)C2 [Example 150]
240	Cc1c(C(=O)NC[C@@H]2CCCO2)oc2c1-c1nn(C(=O)N(C)C)cc1C1(CC1)C2 [Example 153]
270	Cc1c(C(=O)NC[C@@H]2COCCO2)oc2c1-c1nn(C(=O)N(C)C)cc1C1(CC1)C2 [Example 154]
13	Cc1c(C(=O)NC[C@@H]2CCCO2)oc2c1-c1nn(CC3(F)CN(C(=O)OCc4ccccc4)C3)cc1CC2 [Example 155, benzyl 3-fluoro-3-[(8-methyl-7-{[(2S)-tetrahydrofuran-2-ylmethyl]carbamoyl}-4,5-dihydro-2H-furo[2,3-g]indazol-2-yl)methyl]azetidine-1-carboxylate]
9	Cc1c(C(=O)NC[C@@H]2CCCO2)oc2c1-c1nn(CC3CN(C(=O)OCc4ccccc4)C3)cc1CC2 [Example 156, benzyl 3-[(8-methyl-7-{[(2S)-tetrahydrofuran-2-ylmethyl]carbamoyl}-4,5-dihydro-2H-furo[2,3-g]indazol-2-yl)methyl]azetidine-1-carboxylate]
